PubChem BioAssay AID192 (DTP/NCI, 2004)
“And” between values parts separate entries of the source, which are not always exact repeats. Equal entries are not always repeated. Toxic doses and inconclusive results are not listed. Rule for the calls: active = survival T/C of 150% or more; inactive = T/C below 125% in these data.

Tested on: BDF1 mice, B16 melanoma ip, median survival T/C
Test: NCI In Vivo Anticancer Drug Screen. Data for tumor model B16 Melanoma (intraperitoneal) in B6D2F1 (BDF1) mice
Settings: endpoint: median survival time, higher = longer survival
Outline: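 Compounds were tested in mice carrying transplantable tumors. Survival or tumor size was recorded, and each value is the treated-group measurement (T) divided by that of the vehicle-treated control group (C).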

[1] = dose: 2.5 mg/kg/injection, schedule: Q01DX009 (ip), vehicle: Klucel (hydroxypropylcellulose) (HPC)
[2] = dose: 5.0 mg/kg/injection, schedule: Q01DX009 (ip), vehicle: Klucel (hydroxypropylcellulose) (HPC)
[3] = dose: 10.0 mg/kg/injection, schedule: Q01DX009 (ip), vehicle: Klucel (hydroxypropylcellulose) (HPC)
[4] = dose: 12.5 mg/kg/injection, schedule: Q01DX009 (ip), vehicle: saline with Tween-80
[5] = dose: 25.0 mg/kg/injection, schedule: Q01DX009 (ip), vehicle: saline with Tween-80
[6] = dose: 50.0 mg/kg/injection, schedule: Q01DX009 (ip), vehicle: saline with Tween-80
[7] = dose: 100.0 mg/kg/injection, schedule: Q01DX009 (ip), vehicle: saline with Tween-80
[8] = dose: 100.0 mg/kg/injection, schedule: Q01DX009 (ip), vehicle: Klucel (hydroxypropylcellulose) (HPC)
[9] = dose: 200.0 mg/kg/injection, schedule: Q01DX009 (ip), vehicle: Klucel (hydroxypropylcellulose) (HPC)
[10] = dose: 400.0 mg/kg/injection, schedule: Q01DX009 (ip), vehicle: saline with Tween-80
[11] = dose: 200.0 mg/kg/injection, schedule: Q01DX009 (ip), vehicle: saline with Tween-80

Measured: T/C

CC(=O)[O][Hg][c]1c(C)c(C)c(C)c(C)c1C
inactive: [1] 99 % of control | [2] 98 % of control | [3] 90 % of control | dose: 12.5 mg/kg/injection, schedule: Q01DX009 (ip), vehicle: Klucel (hydroxypropylcellulose) (HPC) 90 % of control

BrC[P+](CBr)(CBr)CBr
inactive: [4] 100 % of control | [5] 105 % of control | [6] 104 % of control | [7] 89 % of control

OCCN1CCN(CC/C=C2\c3ccccc3COc3ccc(Cl)cc32)CC1
inactive: dose: 2.0 mg/kg/injection, schedule: Q01DX009 (ip), vehicle: saline 105 % of control | dose: 4.0 mg/kg/injection, schedule: Q01DX009 (ip), vehicle: saline 113 % of control

C[n+]1ccc(Nc2ccc(NC(=O)c3ccc(Nc4cc[n+](C)c5ccc([N+](=O)[O-])cc45)cc3[N+](=O)[O-])cc2)cc1
inactive: [4] 95 % of control | [5] 100 % of control

Nc1ccc(OCc2ccc(S(=O)(=O)F)c(Cl)c2)c(Cl)c1
inactive: [8] 110 % of control | [9] 110 % of control

Cc1cc(Cl)ccc1NS(=O)(=O)c1ccccc1
inactive: [8] 88 % of control | [9] 88 % of control

CCCCCCCCCCCCCCCCCCOCCCCCCCCCCCCCCCCCC
inactive: [7] 90 % of control | [10] 88 % of control

Cc1cc2c(c(O)c1CN1CCOCC1)C1=C(CCCC1)C(C)(C)O2
inactive: dose: 32.0 mg/kg/injection, schedule: Q01DX009 (ip), vehicle: Klucel (hydroxypropylcellulose) (HPC) 108 % of control | dose: 64.0 mg/kg/injection, schedule: Q01DX009 (ip), vehicle: Klucel (hydroxypropylcellulose) (HPC) 98 % of control | dose: 128.0 mg/kg/injection, schedule: Q01DX009 (ip), vehicle: Klucel (hydroxypropylcellulose) (HPC) 93 % of control | dose: 256.0 mg/kg/injection, schedule: Q01DX009 (ip), vehicle: Klucel (hydroxypropylcellulose) (HPC) 103 % of control

CN=C(N)N/N=C(\C)c1ccc2c(c1)Cc1ccccc1-2
inactive: [4] 110 % of control | [5] 115 % of control | [6] 120 % of control | [7] 112 % of control

CCN(C(=O)Nc1ccc(Cl)cc1)c1ccccc1
inactive: [7] 94 % of control | [11] 97 % of control | [10] 92 % of control

O=C1C(Cl)=C(N2CC2)C(=O)C(Cl)=C1N1CC1
inactive: dose: 0.62 mg/kg/injection, schedule: Q01DX009 (ip), vehicle: Klucel (hydroxypropylcellulose) (HPC) 105 % of control | dose: 1.25 mg/kg/injection, schedule: Q01DX009 (ip), vehicle: Klucel (hydroxypropylcellulose) (HPC) 105 % of control | [1] 114 % of control | dose: 2.5 mg/kg/injection, schedule: Q01DX009 (ip), vehicle: saline 115 % of control | [2] 123 % of control | [3] 124 % of control | dose: 20.0 mg/kg/injection, schedule: Q01DX009 (ip), vehicle: Klucel (hydroxypropylcellulose) (HPC) 124 % of control

Cc1ccc(NC(=O)c2cccc(C(=O)Nc3ccc(C)c(Cl)c3)c2)cc1Cl
inactive: [8] 97 % of control | [9] 105 % of control | dose: 400.0 mg/kg/injection, schedule: Q01DX009 (ip), vehicle: Klucel (hydroxypropylcellulose) (HPC) 97 % of control

CNC1C(OC2C(OC3C(O)C(O)C(N=C(N)N)C(O)C3N=C(N)N)OC(C)C2(O)C=O)OC(CO)C(O)C1O (configuration not stated)
inactive: dose: 100.0 mg/kg/injection, schedule: Q01DX009 (ip), vehicle: water 110 % of control | dose: 200.0 mg/kg/injection, schedule: Q01DX009 (ip), vehicle: water 108 % of control

CN=S(=O)(OCCCCCOS(=O)(=NC)c1ccc(C)cc1)c1ccc(C)cc1 (configuration not stated)
inactive: dose: 6.25 mg/kg/injection, schedule: Q01DX009 (ip), vehicle: saline with Tween-80 101 % of control | [4] 103 % of control | [5] 99 % of control | [6] 102 % of control | [7] 101 % of control | [11] 106 % of control

[Cl][Pt+2][Cl].[NH-]c1ccc(C(=O)c2ccccc2)cc1[NH-]
inactive: dose: 20.0 mg/kg/injection, schedule: Q01DX009 (ip), vehicle: saline with Tween-80 108 % of control | dose: 40.0 mg/kg/injection, schedule: Q01DX009 (ip), vehicle: saline with Tween-80 113 % of control | dose: 80.0 mg/kg/injection, schedule: Q01DX009 (ip), vehicle: saline with Tween-80 118 % of control | dose: 160.0 mg/kg/injection, schedule: Q01DX009 (ip), vehicle: saline with Tween-80 114 % of control | dose: 320.0 mg/kg/injection, schedule: Q01DX009 (ip), vehicle: saline with Tween-80 113 % of control

CCN(C)N=Nc1ccc(C(N)=O)cc1
inactive: dose: 25.0 mg/kg/injection, schedule: Q01DX009 (ip), vehicle: Klucel (hydroxypropylcellulose) (HPC) 104 % of control | dose: 50.0 mg/kg/injection, schedule: Q01DX009 (ip), vehicle: Klucel (hydroxypropylcellulose) (HPC) 112 % of control

CCOC(=O)N(Cc1ccccc1)C1CC1
inactive: dose: 0.78 mg/kg/injection, schedule: Q04DX003 (ip), vehicle: saline 101 % of control | dose: 1.56 mg/kg/injection, schedule: Q04DX003 (ip), vehicle: saline 93 % of control | dose: 3.12 mg/kg/injection, schedule: Q04DX003 (ip), vehicle: saline 97 % of control | dose: 6.25 mg/kg/injection, schedule: Q04DX003 (ip), vehicle: saline 101 % of control | dose: 12.5 mg/kg/injection, schedule: Q04DX003 (ip), vehicle: saline 105 % of control | dose: 25.0 mg/kg/injection, schedule: Q01DX009 (ip), vehicle: saline 105 % of control | dose: 50.0 mg/kg/injection, schedule: Q01DX009 (ip), vehicle: saline 100 % of control | dose: 100.0 mg/kg/injection, schedule: Q01DX009 (ip), vehicle: saline 94 % of control | dose: 200.0 mg/kg/injection, schedule: Q01DX009 (ip), vehicle: saline 102 % of control | dose: 400.0 mg/kg/injection, schedule: Q01DX009 (ip), vehicle: saline 107 % of control

C[C@@H](CN1CC(=O)NC(=O)C1)N1CC(=O)NC(=O)C1
inactive: dose: 8.0 mg/kg/injection, schedule: Q01DX009 (ip), vehicle: saline with Tween-80 100 % of control | dose: 16.0 mg/kg/injection, schedule: Q01DX009 (ip), vehicle: saline with Tween-80 117 % of control | dose: 16.0 mg/kg/injection, schedule: Q01DX009 (ip), vehicle: water 107 % of control and 122 % of control | dose: 25.0 mg/kg/injection, schedule: Q04DX003 (ip), vehicle: water 101 % of control and 107 % of control | dose: 32.0 mg/kg/injection, schedule: Q01DX009 (ip), vehicle: saline with Tween-80 112 % of control | dose: 32.0 mg/kg/injection, schedule: Q01DX009 (ip), vehicle: water 111 % of control | dose: 50.0 mg/kg/injection, schedule: Q04DX003 (ip), vehicle: water 103 % of control | dose: 100.0 mg/kg/injection, schedule: Q04DX003 (ip), vehicle: water 104 % of control and 112 % of control | dose: 128.0 mg/kg/injection, schedule: Q01DX009 (ip), vehicle: water 113 % of control | dose: 200.0 mg/kg/injection, schedule: Q04DX003 (ip), vehicle: water 103 % of control | dose: 256.0 mg/kg/injection, schedule: Q01DX009 (ip), vehicle: water 87 % of control | dose: 400.0 mg/kg/injection, schedule: Q04DX003 (ip), vehicle: water 117 % of control | dose: 800.0 mg/kg/injection, schedule: Q04DX003 (ip), vehicle: water 88 % of control
